Results from publication PMC3578862, “Single Residue Mutation in Active Site of Serine Acetyltransferase Isoform 3 from Entamoeba histolytica Assists in Partial Regaining of Feedback Inhibition by Cysteine” (PLoS ONE, 2013).
pIC50: −log10 of the molar value.

What was measured:
[1] = biological target: T1, Serine acetyltransferase isoform 1 (EhSAT1) (Entamoeba histolytica, UniProt Q9U8X2, H208S); experiment: SAT activity assay at […] nm, […] serine; type: biochemical
T1 construct: gene EhSAT

[2] = biological target: T2, Serine acetyltransferase isoform 3 (EhSAT3) (Entamoeba histolytica, UniProt Q401L4, S208H); experiment: SAT activity assay at […] nm, […] serine; […] inhibition at […]; type: biochemical
T2 construct: gene SAT 3

N[C@@H](CO)C(=O)O = experiment: purified protein; type: biochemical, Entamoeba histolytica; conditions: acetyl coenzyme A active site

Row | Compound | pIC50 [1] | pIC50 [2] | Km (N[C@@H](CO)C(=O)O) [µM]
1 | N[C@@H](CS)C(=O)O [L-cysteine] | 3.77 | 2.46 | 
2 | Serine acetyltransferase isoform 3 (EhSAT3) (Entamoeba histolytica; S208H) |  |  | 185.5
3 | Serine acetyltransferase isoform 1 (EhSAT1) (Entamoeba histolytica; H208S) |  |  | 68.4
